Measurements taken from patent US20230416228A1 (Forkhead Biotherapeutics, Inc., priority 2020, published 2023).
Structures can show the parent of a compound that is named as a salt.

Target: T1, human FOXO1 (constitutively active form Thr24Ala, Ser256Ala, Ser319Ala) (Homo sapiens, UniProt Q12778, S256A/S319A/T24A)
T1 construct: expressed in transfected cells; host or cells: HEK293 cells transfected with pcDNA3.1 plasmid
Assay: FOXO1 inhibitor activity assay: cell-based transcriptional (luciferase) reporter assay in HEK293 cells
Settings: HEK293 cells transfected with insulin response element firefly luciferase reporter, FOXO1 and Renilla luciferase; 10-point dose response 50 μM to 2.5 nM; 24 hours
Outline: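 IC50 and maximal inhibition were fitted by 4-parameter logistic regression on normalized firefly/Renilla luciferase ratios. The 0% reference used RFP in place of FOXO1, and the 100% reference was DMSO-only with all plasmids.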

T1 sequence (Q12778 whole entry T24A/S256A/S319A): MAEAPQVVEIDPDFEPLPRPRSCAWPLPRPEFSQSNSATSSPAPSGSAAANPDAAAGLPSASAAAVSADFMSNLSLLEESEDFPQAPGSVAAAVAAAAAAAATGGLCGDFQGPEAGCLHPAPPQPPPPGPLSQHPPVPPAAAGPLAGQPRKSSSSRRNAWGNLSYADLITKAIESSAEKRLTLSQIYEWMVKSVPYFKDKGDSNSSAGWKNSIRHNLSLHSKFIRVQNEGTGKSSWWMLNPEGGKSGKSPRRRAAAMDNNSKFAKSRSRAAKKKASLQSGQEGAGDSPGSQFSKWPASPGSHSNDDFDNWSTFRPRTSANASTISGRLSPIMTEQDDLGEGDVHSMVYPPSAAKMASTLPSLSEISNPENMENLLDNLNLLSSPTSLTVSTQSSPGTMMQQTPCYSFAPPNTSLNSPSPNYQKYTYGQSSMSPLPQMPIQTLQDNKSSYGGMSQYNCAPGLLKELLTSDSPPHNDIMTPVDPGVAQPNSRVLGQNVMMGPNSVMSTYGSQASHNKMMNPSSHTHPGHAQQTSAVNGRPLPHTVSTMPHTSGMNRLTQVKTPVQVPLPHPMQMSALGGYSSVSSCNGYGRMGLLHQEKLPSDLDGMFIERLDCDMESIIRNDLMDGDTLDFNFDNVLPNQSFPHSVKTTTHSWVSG

Structure (SMILES)	IC50
COCCOc1ccc(C(=O)Nc2cc(-c3nc4cccc(F)c4[nH]3)n(C)n2)cc1Cl [Compound A-164, 3-chloro-N-[5-(7-fluoro-1H-benzimidazol-2-yl)-1-methyl-pyrazol-3-yl]-4-(2-methoxyethoxy)benzamide]	< 0.1 µM
Cn1nc(NC(=O)c2ccc(OCCO)c(Cl)c2)cc1-c1nc2cccc(F)c2[nH]1 [Compound A-165, 3-chloro-N-[5-(7-fluoro-1H-benzimidazol-2-yl)-1-methyl-pyrazol-3-yl]-4-(2-hydroxyethoxy)benzamide]	< 0.1 µM
COCCOc1ccc(C(=O)Nc2cc(-c3nc4cc(F)ccc4[nH]3)n(C)n2)cc1Cl [Compound A-166, 3-chloro-N-[5-(5-fluoro-1H-benzimidazol-2-yl)-1-methyl-pyrazol-3-yl]-4-(2-methoxyethoxy)benzamide]	< 0.1 µM
Cn1nc(NC(=O)c2ccc(OCCO)c(Cl)c2)cc1-c1nc2cc(F)ccc2[nH]1 [Compound A-167, 3-chloro-N-[5-(5-fluoro-1H-benzimidazol-2-yl)-1-methyl-pyrazol-3-yl]-4-(2-hydroxyethoxy)benzamide]	< 0.1 µM
Cn1nc(NC(=O)c2ccc(N3CCC(N4CCOCC4)CC3)nc2)cc1-c1nc2cc(F)ccc2[nH]1 [Compound A-168, N-[5-(5-fluoro-1H-benzimidazol-2-yl)-1-methyl-pyrazol-3-yl]-6-(4-morpholino-1-piperidyl)pyridine-3-carboxamide]	0.1 to 0.3 µM
Cn1nc(NC(=O)c2ccc(N3CCC(N4CCOCC4)CC3)nc2)cc1-c1nc2cccc(F)c2[nH]1 [Compound A-173]	0.1 to 0.3 µM
COCCn1nc(NC(=O)c2ccc(OC)c(Cl)c2)cc1-c1nc2ccccc2[nH]1 [Compound A-175, N-[5-(1H-benzimidazol-2-yl)-1-(2-methoxyethyl)pyrazol-3-yl]-3-chloro-4-methoxy-benzamide]	> 1 µM
COCCn1nc(NC(=O)c2ccc(N3CC(OC)C3)nc2)cc1-c1nc2ccccc2[nH]1 [Compound A-176, N-[5-(1H-benzimidazol-2-yl)-1-(2-methoxyethyl)pyrazol-3-yl]-6-(3-methoxyazetidin-1-yl)pyridine-3-carboxamide]	> 1 µM
COC1CN(c2ncc(C(=O)Nc3cc(-c4nc5ccccc5[nH]4)[nH]n3)cn2)C1 [Compound A-183, N-[5-(1H-benzimidazol-2-yl)-1H-pyrazol-3-yl]-2-(3-methoxyazetidin-1-yl)pyrimidine-5-carboxamide]	> 1 µM
COC1CN(c2cnc(C(=O)Nc3cc(-c4nc5ccccc5[nH]4)[nH]n3)cn2)C1 [Compound A-186, N-[5-(1H-benzimidazol-2-yl)-1H-pyrazol-3-yl]-5-(3-methoxyazetidin-1-yl)pyrazine-2-carboxamide]	> 1 µM
COc1cc(F)c2[nH]c(-c3cc(NC(=O)c4ccc(N5CC(OC)C5)nc4)nn3C)nc2c1 [Compound A-187, N-[5-(7-fluoro-5-methoxy-1H-benzimidazol-2-yl)-1-methyl-pyrazol-3-yl]-6-(3-methoxyazetidin-1-yl)pyridine-3-carboxamide]	0.3 to 1 µM
COc1cc(F)c2[nH]c(-c3cc(NC(=O)c4ccc(N5CC(OC)C5)nc4)n[nH]3)nc2c1 [Compound A-188, N-[5-(7-fluoro-5-methoxy-1H-benzimidazol-2-yl)-1H-pyrazol-3-yl]-6-(3-methoxyazetidin-1-yl)pyridine-3-carboxamide]	> 1 µM
COc1cc(F)c2[nH]c(-c3cc(NC(=O)c4ccc(N5CCC(OC)CC5)nc4)nn3C)nc2c1 [Compound A-189, N-[5-(7-fluoro-5-methoxy-1H-benzimidazol-2-yl)-1-methyl-pyrazol-3-yl]-6-(4-methoxy-1-piperidyl)pyridine-3-carboxamide]	< 0.1 µM
COCCN1CCN(c2ccc(C(=O)Nc3cc(-c4nc5cc(OC)cc(F)c5[nH]4)n(C)n3)cn2)CC1 [Compound A-190, N-[5-(7-fluoro-5-methoxy-1H-benzimidazol-2-yl)-1-methyl-pyrazol-3-yl]-6-[4-(2-methoxyethyl)piperazin-1-yl]pyridine-3-carboxamide]	< 0.1 µM
COc1cc(F)c2[nH]c(-c3cc(NC(=O)c4ccc(N5CCN(C)CC5)nc4)nn3C)nc2c1 [Compound A-191, N-[5-(7-fluoro-5-methoxy-1H-benzimidazol-2-yl)-1-methyl-pyrazol-3-yl]-6-(4-methylpiperazin-1-yl)pyridine-3-carboxamide]	0.1 to 0.3 µM
COCCN1CCN(c2ccc(C(=O)Nc3cc(-c4nc5cc(OC)cc(F)c5[nH]4)[nH]n3)cn2)CC1 [Compound A-192, N-[5-(7-fluoro-5-methoxy-1H-benzimidazol-2-yl)-1H-pyrazol-3-yl]-6-[4-(2-methoxyethyl)piperazin-1-yl]pyridine-3-carboxamide]	> 1 µM
COc1cc(F)c2[nH]c(-c3cc(NC(=O)c4ccc(N5CCC(OC)CC5)nc4)n[nH]3)nc2c1 [Compound A-193, N-[5-(7-fluoro-5-methoxy-1H-benzimidazol-2-yl)-1H-pyrazol-3-yl]-6-(4-methoxy-1-piperidyl)pyridine-3-carboxamide]	> 1 µM
COc1ccc(C(=O)Nc2cc(-c3nc4ccccc4[nH]3)n(CCO)n2)cc1Cl [Compound A-195, N-[5-(1H-benzimidazol-2-yl)-1-(2-hydroxyethyl)pyrazol-3-yl]-3-chloro-4-methoxy-benzamide]	0.1 to 0.3 µM
COC1CN(c2ccc(C(=O)Nc3cc(-c4nc5ccccc5[nH]4)n(CCO)n3)cn2)C1 [Compound A-196, N-[5-(1H-benzimidazol-2-yl)-1-(2-hydroxyethyl)pyrazol-3-yl]-6-(3-methoxyazetidin-1-yl)pyridine-3-carboxamide]	> 1 µM

The next lines start with the values.

IC50	Structure (SMILES)
0.1 to 0.3 µM	CN(C1CCN(c2ccc(C(=O)Nc3cc(-c4nc5ccccc5[nH]4)[nH]n3)cn2)CC1)S(C)(=O)=O [Compound A-169, N-[5-(1H-benzimidazol-2-yl)-1H-pyrazol-3-yl]-6-[4-[methyl(methyl-sulfonyl)amino]-1-piperidyl]pyridine-3-carboxamide]
0.1 to 0.3 µM	CC(=O)N(C)C1CCN(c2ccc(C(=O)Nc3cc(-c4nc5ccccc5[nH]4)[nH]n3)cn2)CC1 [Compound A-170, 6-[4-[acetyl(methyl)amino]-1-piperidyl]-N-[5-(1H-benzimidazol-2-yl)-1H-pyrazol-3-yl]pyridine-3-carboxamide]
< 0.1 µM	O=C(Nc1cc(-c2nc3ccccc3[nH]2)[nH]n1)c1ccc(N2CCN(C3COC3)CC2)nc1 [Compound A-171, N-[5-(1H-benzimidazol-2-yl)-1H-pyrazol-3-yl]-6-[4-(oxetan-3-yl)-piperazin-1-yl]pyridine-3-carboxamide]
< 0.1 µM	O=C(Nc1cc(-c2nc3ccccc3[nH]2)[nH]n1)c1ccc(N2CCC(N3CCOCC3)CC2)nc1 [Compound A-172, N-[5-(1H-benzimidazol-2-yl)-1H-pyrazol-3-yl]-6-(4-morpholino-1-piperidyl)pyridine-3-carboxamide]
< 0.1 µM	COCCN1CCN(c2ccc(C(=O)Nc3cc(-c4nc5ccccc5[nH]4)[nH]n3)cc2)CC1 [Compound A-174, N-[5-(1H-benzimidazol-2-yl)-1H-pyrazol-3-yl]-4-[4-(2-methoxyethyl)-piperazin-1-yl]benzamide]
> 1 µM	CN1CCN(c2ccc(C(=O)Nc3cc(-c4nc5ccccc5[nH]4)[nH]n3)nn2)CC1 [Compound A-177, N-[5-(1H-benzimidazol-2-yl)-1H-pyrazol-3-yl]-6-(4-methylpiperazin-1-yl)pyridazine-3-carboxamide]
0.3 to 1 µM	COCCN1CCN(c2ccc(C(=O)Nc3cc(-c4nc5ccccc5[nH]4)n(CCOC)n3)cn2)CC1 [Compound A-178, N-[5-(1H-benzimidazol-2-yl)-1-(2-methoxyethyl)pyrazol-3-yl]-6-[4-(2-methoxyethyl)piperazin-1-yl]pyridine-3-carboxamide]
0.1 to 0.3 µM	CN1CCN(c2cnc(C(=O)Nc3cc(-c4nc5ccccc5[nH]4)[nH]n3)cn2)CC1 [Compound A-179, N-[5-(1H-benzimidazol-2-yl)-1H-pyrazol-3-yl]-5-(4-methylpiperazin-1-yl)pyrazine-2-carboxamide]
0.1 to 0.3 µM	CN1CCN(c2ncc(C(=O)Nc3cc(-c4nc5ccccc5[nH]4)[nH]n3)cn2)CC1 [Compound A-180, N-[5-(1H-benzimidazol-2-yl)-1H-pyrazol-3-yl]-2-(4-methylpiperazin-1-yl)pyrimidine-5-carboxamide]
< 0.1 µM	O=C(Nc1cc(-c2nc3ccccc3[nH]2)[nH]n1)c1ccc(N2CCN(CCO)CC2)cc1 [Compound A-181]
0.3 to 1 µM	COCCn1nc(NC(=O)c2ccc(N3CCN(C)CC3)nc2)cc1-c1nc2ccccc2[nH]1 [Compound A-182, N-[5-(1H-benzimidazol-2-yl)-1-(2-methoxyethyl)pyrazol-3-yl]-6-(4-methyl-piperazin-1-yl)pyridine-3-carboxamide]
> 1 µM	CN1CCN(c2ccc(C(=O)Nc3cc(-c4nc5ccccc5[nH]4)[nH]n3)nc2)CC1 [Compound A-184, N-[5-(1H-benzimidazol-2-yl)-1H-pyrazol-3-yl]-5-(4-methylpiperazin-1-yl)pyridine-2-carboxamide]
> 1 µM	COCCn1nc(NC(=O)c2ccc(N3CCN(C)CC3)cc2)cc1-c1nc2ccccc2[nH]1 [Compound A-185, N-[5-(1H-benzimidazol-2-yl)-1-(2-methoxyethyl)pyrazol-3-yl]-4-(4-methylpiperazin-1-yl)benzamide]
> 1 µM	O=C(O)CCN1CCN(c2ccc(C(=O)Nc3cc(-c4nc5ccccc5[nH]4)[nH]n3)cc2)CC1 [Compound A-197, 3-[4-[4-[[5-(1H-benzimidazol-2-yl)-1H-pyrazol-3-yl]carbamoyl]phenyl]-piperazin-1-yl]propanoic acid hydrochloride]
0.3 to 1 µM	COCCN1CCN(c2ccc(C(=O)Nc3cc(-c4nc5ccccc5[nH]4)n(CCO)n3)cn2)CC1 [Compound A-198, N-[5-(1H-benzimidazol-2-yl)-1-(2-hydroxyethyl)pyrazol-3-yl]-6-[4-(2-methoxyethyl)piperazin-1-yl]pyridine-3-carboxamide]
